Measurements as given in US20250144047A1, “PHARMACEUTICAL COMPOSITION FOR PREVENTING, AMELIORATING, OR TREATING CANCER CONTAINING 8-PARADOL” (KDBIO CORP., priority 2022, published 2025).

Experiments:
[1] = test system: HEK293 cells; format: cell-based, human
Experimental: (§2) AGS cells were grown in RPMI medium containing 10% FBS and 1% PS. HEK293 and RAW264.7 cells were grown in DMEM medium containing 10% FBS and 1% PS under conditions of 37° C., 5% CO2 and 95% air.
(§3) In order to evaluate toxicity to each cell, the sample was incubated in each cell (1×10^5 cells/well) cultured in the above manner for 24 hours, and then cytotoxicity to each cell was examined by using the MTT assay.

[2] = test system: AGS cells; assay: Mito-tracker, ROS and Mito-SOX staining; format: cell-based, human
Experimental: AGS cells (1×10^5 cells) were processed with the sample for 24 hours and then stained with a mitochondrial mito-tracker green kit (Thermo Fisher Scientific, Rockford, IL, USA). The stained cells were observed using the Leica DM IRB fluorescence microscope.
AGS cells were cultured at a density of 1×10^5 cells for 24 hours. After the sample were processed with the cultured cells, intracellular oxidative stress and superoxide were confirmed by a cell ROS/superoxide detection assay kit (Abcam, Cambridge, MA, USA). The degree of fluorescence was evaluated using the Leica DM IRB fluorescence microscope.

[3] = test system: AGS cells; assay: Western blot analysis of AGS cells; format: cell-based, human
Experimental: Mitochondria of AGS cells were extracted using an extraction kit (Abcam, Cambridge, MA, USA). According to the instructions for using the kit, the AGS cells were washed with cold PBS and homogenized in a cold glass vortex mixer. For mitochondrial-rich supernatants, the homogenates were centrifuged at 1000 rpm for 10 minutes at 4° C. For whole protein extraction, AGS cells were processed with samples at various concentrations for 24 hours. The cells were dissolved using Pierce™ RIPA buffer (Thermo Fisher Scientific, Rockford, IL, USA) together with protease inhibitor cocktail (GenDEPOT, TX, USA). The cell-dissolved solution formed in the above manner was centrifuged at 12,000 rpm for 20 minutes. The protein was loaded into a 10% SDS-PAGE gel using a protein gel electrophoresis chamber system and transferred to a PVDF membrane (Thermo Fisher Scientific, Rockford, IL, USA). A PBST solution containing 5% skim milk was used to block the membrane at 25° C. for 1 hour. Then, the membrane was incubated overnight at 4° C. with primary antibodies. Finally, the membrane was incubated with the secondary antibodies at 25° C. for 1 hour, and a protein band was detected using West-Q Pico ECL Solution (GenDEPOT, TX, USA). The results were quantified using ImageJ software.

[4] = test system: AGS cells; assay: Hoechst33258 and PI staining; format: cell-based, human
Experimental: AGS cells (1×10^5 cells) were seeded and maintained for 24 hours. In order to evaluate the percentage of apoptotic cells, Hoechst33258 or PI (Thermo Fisher Scientific, Rockford, IL, USA) was added to the AGS cells processed with the sample. After 30 minutes, the cells were observed using the fluorescence microscope (Leica DM IRB).

[5] = test system: AGS cells; assay: LC3 immunofluorescence staining; format: cell-based, human
Experimental: AGS cells (1×10^5 cells) were cultured on 6-well plates and processed with samples for 24 hours. For cell fixation and permeation, 4% paraformaldehyde and 0.1% Triton X-100 were used, respectively. After blocking with 2% BSA for 1 hour, the cells were incubated with primary antibodies on LC3 for 3 hours at 25° C. Then, the cells were incubated with fluorescein isothiocyanate (FITC)-conjugated secondary antibodies (Abcam, Cambridge, MA, USA) for 30 minutes. Finally, fluorescence was captured and analyzed using the Leica fluorescence microscope and ImageJ software.

[6] = design: species or system mice; conditions: mouse, in vivo, po
Experimental: (§1) Male nude mice (CAnN.Cg-Foxn1-nu, 4 weeks old, 20 g to 22 g) were purchased from OrientBio (Seongnam, Republic of Korea). The mice were placed in a chamber with conditions maintained at 23° C. and 50% humidity with a period of 12 hours of light and 12 hours of darkness. All animal experiments were conducted according to the National Institutes of Health's Laboratory Animal Care and Use Guidelines (NIH Publications No. 8023, revised 1996) and the Kyung Hee University's Animal Care and Use Guidelines ([…]-441, approval data: Sep. 28, 2021). […] The control group was administered with only 0.9% of general saline during this period. Body weights and tumor volumes of the mice were measured daily in all mice during the study period. All mice were euthanized after the end of the experiments. Blood, liver, spleen, kidney, and tumor tissues were extracted and weighed. In order to obtain the protein of tumor tissue, a portion of the tissue was processed with RIPA buffer containing a protease inhibitor cocktail. Then, the expression degree of a specific protein (determined by Western blot) was determined.

[7] = design: species or system mice; conditions: mouse, in vivo
Experimental: as §1, with “determined. […] Fuji Dri-Chem analyzer (3500, Fuji Photo Film Co., Osaka, Japan) was used to measure alanine aminotransferase (ALT), aspartate aminotransferase (AST), total bilirumin (T-Bili), total protein (TP), albumin (Alb), albumin/globulin (A/G) ratio, total cholesterol (T-Chol), total triglyceride (TG), glucose (GLU), and blood urea nitrogen (BUN) values.” for “determined.”

[8] = test system: AGS xenografts; assay: Tumor size in AGS-xenograft mice; format: in vivo
Experimental: as §1

[9] = test system: AGS cells
Experimental: as §2, §3

[10] = 8-paradol in combination with CQ, compared to 8-paradol solely
[11] = 8-paradol and CQ in combination, compared to 8-paradol solely
[12] = AGS cells, compared with control group
[13] = 8-paradol-H 8 mg/kg oral 16 days

Compound: CCCCCCCCCC(=O)CCc1ccc(O)c(OC)c1 [Purified Compound 3, 8-paradol]
- cytotoxicity to normal cells HEK293 [1]: did not express significant cytotoxicity
- Mito-SOX [2, 10]: partially reduced
- segmented mitochondria [2, 10]: reduced
- ROS and Mito-SOX production ([2]; AGS cells): overproduction
- mitochondrial morphology (Mito-tracker) ([2]; AGS cells, 24 hours): damaged and fragmented mitochondrial morphology
- Bcl-2 expression [3, 11]: significantly increased
- expression degree of Bax, Cytochrome c and caspase-3/-9 [3, 11]: significantly decreased
- conversion to LC3b and degradation of p62 ([3]; 8-paradol combined with CQ 30 μM, compared to 8-paradol solely): more strongly induces
- expression of TOM20 and TIM23 [3, 10]: increased
- amount of Bax, Cytochrome C and Cleaved-caspase-3/-9 ([3]; AGS cells): increased
- amount of Bcl-2 ([3]; AGS cells): decreased
- expression of p62 ([3]; AGS cells): degraded p62 in a dose-dependent manner
- protein expression of Pink1 and Parkin ([3]; AGS cells): significantly increased
- protein expression of TOM20 and TIM23 [3, 12]: decreased
- conversion from LC3a to LC3b ([3]; AGS cells, dose- and time-dependent): promoted
- Parkin concentration of the mitochondrial fraction ([3]; AGS cells, mitochondrial fraction): increased
- number of apoptotic cells (Hoechst and PI staining) ([4]; 8-paradol and CQ together, compared to 8-paradol solely): significantly reduced
- fragmentation of nuclei and fluorescence of the condensate (Hoechst staining) ([4]; AGS cells): became stronger in a dose-dependent manner
- number of killed cells (PI staining) [4, 12]: increased the number of killed cells
- endogenous LC3 spots [5]: increase
- liver and kidney indices versus Con-T group [6]: did not exhibit a significant difference
- body weight ([6]; 8 mg/kg): 19.5 g
- harm to the liver [7]: not harmful to the liver
- kidney damage [7]: did not cause kidney damage
- size and weight of the tumor compared to Con-T [8, 13]: significantly reduced
- size, weight, and volume of the tumor compared to the 5-FU group [8, 13]: further reduced
- size of the tumor compared to Con-T ([8]; 8-paradol-M 4 mg/kg oral 16 days): significantly reduced
- cytotoxicity to AGS cells [9]: killed in a concentration-dependent manner
- cell viability [9, 11]: significantly improved
- IC50 ([9]; read-out: IC50 on AGS cells, AGS cells, 24 hours, MTT assay): 14.9 ± 1.65 µM
